In patent US8716180B2 (priority 2005, dated 2014):

System: deoxynivalenol (DON)
Set-up: species or system winter wheat
Details: in vivo

N#Cc1c[nH]cc1-c1cccc2c1OC(F)(F)O2 [Lot B, fludioxonil]
Amount of DON (deoxynivalenol) in the ear of wheat: 0 ppb
